The values below come from article PMC8584173, “The Cytotoxic Effect of Copper (II) Complexes with Halogenated 1,3-Disubstituted Arylthioureas on Cancer and Bacterial Cells” (International Journal of Molecular Sciences, 2021).

The subject of series [1] is Bacillus subtilis H17 (rec+). In words: Bacillus subtilis rec-assay, H17. In kind it is cell-based. As to conditions: B. subtilis H17; 256 µg per disc (NOQ 2 µg per disc). The protocol:
(§1) DNA-damaging activity of compounds was tested by rec-assay using two genetically modified Bacillus subtilis strains: M45 (rec^−) and H17 (rec^+). Tested compounds were dissolved in DMSO, and 10 µL of each solution was dripped onto sterile cotton discs (Rotilabo) to load 256 µg of a given compound per 9 mm disc. Discs were placed on the surface nutrient agar plates (Difco), inoculated with 100 µL of bacterial overnight culture and incubated […] at 35 °C. After incubation, the growth inhibition zones were measured. […] Results of the genotoxicity test were estimated after 18 h of incubation at 35 °C by comparing the diameter of the inhibition zone on the B. subtilis M45 (rec^−) strain with that on the B. subtilis H17 (rec^+) strain.

For series [2], the system named is Bacillus subtilis M45 (rec−). As to the kind of experiment: Bacillus subtilis rec-assay, M45. In kind it is cell-based. As to conditions: B. subtilis M45; 256 µg per disc (NOQ 2 µg per disc). The protocol:
as §1

In another series the test system is S. aureus 568. In words: MIC, hospital MRSA strain. In kind it is cell-based, Staphylococcus aureus. Particulars: hospital MRSA S. aureus 568. The protocol:
(§2) The antimicrobial activity of the compounds was tested on Gram-positive bacteria (Staphylococcus aureus NCTC 4163, Staphylococcus aureus ATCC 25923, Staphylococcus aureus ATCC 6538, Staphylococcus aureus ATCC 29213, Staphylococcus epidermidis ATCC 12228, Staphylococcus epidermidis ATCC 35984), Gram-negative rods (Escherichia coli ATCC 10538, Escherichia coli ATCC 25922, Pseudomonas aeruginosa ATCC 15442, Pseudomonas aeruginosa ATCC 27863) and yeasts (Candida albicans ATCC 10231, Candida albicans ATCC 90028, Candida parapsilosis ATCC 22019). Hospital methicillin-resistant strains of Staphylococcus aureus and Staphylococcus epidermidis were obtained from the collection of the Department of Pharmaceutical Microbiology, Medical University of Warsaw, Poland.
(§3) Antifungal activities were assessed using Mueller–Hinton agar + 2% glucose and 0.5 µg/mL methylene blue dye medium. Sterile filter paper discs (9 mm diameter, Whatman Number 3 chromatography paper) were dripped with tested compound solutions (in dimethylsulfoxide, DMSO) to load 400 μg of a given compound per disc. Dry discs were placed on the surface of appropriate agar medium. The results (diameter of the growth inhibition zone) were read after 18 h of incubation at 35 °C. Minimal inhibitory concentration (MIC) was tested by the twofold serial microdilution method (in 96-well microtiter plates) using Mueller–Hinton broth medium (Beckton Dickinson) for bacteria or RPMI-1640 medium for Candida species, according to CLSI guidelines. The stock solution of tested agent was prepared in DMSO and diluted in sterile water. […] The final inoculum of all studied microorganisms was 10^5 CFU/ mL^−1 (colony forming units per ml). Minimal inhibitory concentrations (the lowest concentration of a tested agent that prevents visible growth of a microorganism) were read after 18 h (bacteria) or 24 h (yeasts) of incubation at 35 °C.

A further series deals with S. aureus 498. In words: MIC, hospital MRSA strain. The format is cell-based, Staphylococcus aureus. As to conditions: hospital MRSA S. aureus 498. On the procedure:
as §2, §3

A further series concerns S. aureus 567. As to the kind of experiment: MIC, hospital MRSA strain. As to conditions: hospital MRSA S. aureus 567. The format is cell-based, Staphylococcus aureus. On the procedure:
as §2, §3

A further series concerns S. aureus 572. As to the kind of experiment: MIC, hospital MRSA strain. In kind it is cell-based, Staphylococcus aureus. On the procedure: as §2, §3
For the next series, the system named is S. aureus 585. As to the kind of experiment: MIC, hospital MRSA strain. The format is cell-based, Staphylococcus aureus. Particulars: hospital MRSA S. aureus 585. On the procedure:
as §2, §3

The subject of another series is S. aureus 586. In words: MIC, hospital MRSA strain. In kind it is cell-based, Staphylococcus aureus. Particulars: hospital MRSA S. aureus 586. The protocol: as §2, §3
The next series has as its system S. aureus 522. In words: MIC, hospital MRSA strain. The format is cell-based, Staphylococcus aureus. Particulars: hospital MRSA S. aureus 522. On the procedure:
as §2, §3

The test system of the next series is S. aureus 537. In words: MIC, hospital MRSA strain. In kind it is cell-based, Staphylococcus aureus. Particulars: hospital MRSA S. aureus 537. The protocol:
as §2, §3

A further series has as its system S. aureus 481. In words: MIC, hospital MRSA strain. The format is cell-based, Staphylococcus aureus. The protocol:
as §2, §3

A further series relates to S. aureus 514. In words: MIC, hospital MRSA strain. The format is cell-based, Staphylococcus aureus. As to conditions: hospital MRSA S. aureus 514. On the procedure: as §2, §3
The next series deals with S. aureus 497. In words: MIC, hospital MRSA strain. The format is cell-based, Staphylococcus aureus. As to conditions: hospital MRSA S. aureus 497. On the procedure: as §2, §3
In the next series the test system is S. aureus 495. In words: MIC, hospital MRSA strain. In kind it is cell-based, Staphylococcus aureus. As to conditions: hospital MRSA S. aureus 495. On the procedure: as §2, §3
In a further series the test system is S. aureus 496. In words: MIC, hospital MRSA strain. In kind it is cell-based, Staphylococcus aureus. Particulars: hospital MRSA S. aureus 496. On the procedure:
as §2, §3

The next series has as its system S. aureus 573. In words: MIC, hospital MRSA strain. In kind it is cell-based, Staphylococcus aureus. As to conditions: hospital MRSA S. aureus 573. On the procedure: as §2, §3
The test system of series [3] is HaCaT (human immortal keratinocyte cell line). In words: MTT cytotoxicity assay, HaCaT. In kind it is cell-based. As to conditions: HaCaT normal cells, 72 h. In a few lines:
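SW480, SW620 (MEM), PC3 (RPMI 1640) and HaCaT (DMEM) cells, with 10% FBS, were grown at 37 °C/5% CO2. Viability after compound treatment was measured by MTT reduction, expressed as percent of untreated control cells; IC50 values were derived. Experiments were repeated three times.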
A general note: Tetrazolium dyes change colour on reduction, which living cells bring about.

The subject of another series is P. aeruginosa ATCC 15442. In words: MIC, twofold serial microdilution. As to conditions: P. aeruginosa ATCC 15442, 18 h, 35 °C. The format is cell-based, Pseudomonas aeruginosa. The protocol:
as §2, §3
A general note: Dilution methods test growth across graded concentrations, often in twofold steps.

Another series has as its system P. aeruginosa ATCC 27853. As to the kind of experiment: MIC, twofold serial microdilution. As to conditions: P. aeruginosa ATCC 27853, 18 h, 35 °C. The format is cell-based, Pseudomonas aeruginosa. On the procedure:
as §2, §3

For orientation: MIC means the least concentration at which growth counts as inhibited. A higher MIC goes with a need for much substance. In general, IC50 refers to the concentration at which inhibition is half-maximal. High values mean a need for much substance, low ones inhibition by little substance.

As to `O=[N+]([O-])c1cc([N+]2=C(Nc3ccc(I)cc3)[S][Cu-2]23[S]C(Nc2ccc(I)cc2)=[N+]3c2ccc(Cl)c([N+](=O)[O-])c2)ccc1Cl` [Compound 8, Copper (II) complex with 1-(4-iodophenyl)-3-(4-chloro-3-nitrophenyl)thiourea], the inhibition zone diameter in [1] and in series [2] was 14 mm throughout. The MIC in the series with S. aureus 568 was determined as 8 µg/mL; against S. aureus 498 it was 8 µg/mL; against S. aureus 567, 8 µg/mL; against S. aureus 572 (hospital MRSA S. aureus 572), 4 µg/mL; with S. aureus 585, 8 µg/mL; in the series on S. aureus 586, 8 µg/mL. For the same compound, the minimal inhibitory concentration (MIC) against S. aureus 522 is reported as 4 µg/mL; in the series on S. aureus 537, 8 µg/mL; in the series with S. aureus 481 (hospital MRSA S. aureus 481) it was 4 µg/mL; in the series on S. aureus 514, 4 µg/mL; against S. aureus 497 it was 8 µg/mL; in the series on S. aureus 495, 4 µg/mL. Besides, the MIC against S. aureus 496 is 8 µg/mL; in the series with S. aureus 573, 8 µg/mL; in the series with P. aeruginosa ATCC 15442, 128 µg/mL; in the series with P. aeruginosa ATCC 27853, 128 µg/mL. Moreover, the “times more active than ciprofloxacin” value in the series on S. aureus 572 (S. aureus 572) and in the series on S. aureus 481 (S. aureus 481) was 64 times each time. The IC50 in series [3] was 103 ± 3.4 µM.
